# Literature values, collected in patent KR20220033790A, “장 정결용 조성물” (강윤식, priority 2020, dated 2022).
# System: blood glucose (혈당)
# Conditions: scale 0-100, glucose = 100 at 2 h after intake; background statement
row,SMILES,Glycemic index (GI)
1,OC[C@@H](O)[C@@H](O)[C@H](O)[C@@H](O)CO.OC[C@@H](O)[C@@H](O)[C@H](O)[C@@H](O)CO [소르비톨],4
2,OC[C@@H](O)[C@H](O)[C@@H](O)CO [자일리톨],14
